From US20080268073A1, “CERAMIDASE INHIBITOR” (TAKARA BIO INC., priority 2003, published 2008)

Tested on: neutral/alkaline RatBrain Ceramidase
Experiment: Inhibitory activity on neutral/alkaline RatBrain Ceramidase (Reference Example 1, NBD-C12-Ceramide, HPLC)
Assay type: biochemical, rat
Conditions: concentration of 5 μM; NBD-C12-Ceramide 0.02 mM
Method: As neutral/alkaline ceramidase, two kinds of ceramidase derived from Pseudomonas aeruginosa strain AN17 and ceramidase derived from a rat brain were used.
On the other hand, a crude enzyme solution of rat brain-derived ceramidase was prepared in the following manner. First, two pieces (3.5 g) of rat brain tissues were homogenized in 30 mL of 0.25 M sucrose solution with a Potter-Elvehjem homogenizer. The resulting homogenate was centrifuged at 700×g for 10 minutes, then the supernatant was centrifuged at 25,000×g for 10 minutes, and the resulting supernatant was further centrifuged at 100,000×g for 60 minutes to give precipitates which were then suspended in 3 mL of 25 mM Tris-HCl buffer (pH 8.0). Nine milliliters of 25 mM Tris-HCl buffer (pH 8.0) comprising 0.5% Triton X-100 was added to the resulting suspension which was then subjected to extraction by leaving the suspension on ice for 2 hours. […]
The inhibitory activity on the neutral/alkaline RatBrain Ceramidase was determined in the following manner. […] The reaction was terminated by adding 75 microliters of methanol, and 50 microliters of aliquot of the reaction solution was analyzed by HPLC.
HPLC analysis was carried out in the following manner. […] Detection was carried out with a fluorescence detector at an excitation light of 465 nm and a fluorescent light of 535 nm. […]

CCCC/C=C/CCCC(O)C(CCCCCCCCCCCCCCCC/C=C/CC(=O)O)C(CO)C(C)O (single isomer, unassigned) [purified substance]
inhibition of the activity of neutral/alkaline ceramidase derived from a rat brain: 50%
